Here are results for 11 compounds from US10844013B2, “Phenyl amino piperidine mTORC inhibitors and uses thereof” (Navitor Pharmaceuticals, Inc., priority 2016, dated 2020).

Assay [1] has as its system pS6K1 (p-p70 S6 Kinase (Thr389)) in MCF-7 cells. Kind of assay: AlphaLISA Ultra pS6K1 assay. The assay is classed as cell-based. The note with it: Homo sapiens, MCF7, 2 h, 2 hours compound incubation. The gist of the method:
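MCF-7 cells seeded 20–24 h, medium refreshed 2 h, then treated 2 h with compound (0.5% DMSO final). Lysates probed for Thr389-phosphorylated p70 S6K by AlphaLISA Ultra, 2 h acceptor then 2 h donor bead incubation, read on a multimode reader.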
Background: Alpha assays give light when donor and acceptor beads are brought close together.

Assay [2] concerns pAKT (p-Akt 1/2/3 (Ser473)) in MCF-7 cells. Kind of assay: AlphaLISA Ultra pAKT assay. The note with it: Homo sapiens, MCF7, 2 hours compound incubation. Format: cell-based. The gist of the method: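 AlphaLISA read-out (2 h acceptor-bead, then 2 h donor-bead incubation) on thawed lysates of MCF-7 cells exposed to compounds for 2 h in 0.5% DMSO. Cells had been plated 20-24 h and given fresh medium 2 h before dosing.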

A word on the IC50: it is the concentration needed to halve the response being measured. Read a low IC50 as higher potency. Turning to `Cc1cc(C)c(C(=O)N2CCN(c3cc(F)c(F)cc3S(N)(=O)=O)CC2)cc1NC1CCN(c2ccccc2C#N)CC1` [I-104, 2-(4-(5-(1-(2-Cyanophenyl)piperidin-4-ylamino)-2,4-dimethylbenzoyl)piperazin-1-yl)-4,5-difluorobenzenesulfonamide], the IC50 is 10 to 1000 nM in assay [1] and over 10000 nM in assay [2].
With `COc1cc(C)c(NC2CCN(c3ccccc3C#N)CC2)cc1C(=O)N1CCN(c2ccccc2S(N)(=O)=O)CC1` [I-105, 2-(4-(5-(1-(2-Cyanophenyl)piperidin-4-ylamino)-2-methoxy-4-methylbenzoyl)piperazin-1-yl)benzenesulfonamide], the IC50 is 1000 to 3000 nM in assay [1] and over 10000 nM in assay [2].
On the same counts, the results for `Cc1cc(C)c(C(=O)N2CCN(c3ccccc3S(N)(=O)=O)CC2)cc1NC1CCN(c2ccccc2C)CC1` [I-108, 2-(4-(2,4-Dimethyl-5-(1-o-tolylpiperidin-4-ylamino)benzoyl)piperazin-1-yl)benzenesulfonamide] are 1000 to 3000 nM and over 10000 nM.
For the compound `N#Cc1ccccc1N1CCC(Nc2c(F)ccc(C(=O)N3CCN(c4ccccc4S(N)(=O)=O)CC3)c2F)CC1` [I-109, 2-(4-(3-(1-(2-cyanophenyl)piperidin-4-ylamino)-2,4-difluorobenzoyl)piperazin-1-yl)benzenesulfonamide], the IC50 in assay [1] is 3000 to 5000 nM; in assay [2] it was over 10000 nM.
Consider `Cc1cc(C)c(C(=O)N2CCN(c3ccccc3[S@](C)(=N)=O)CC2)nc1NC1CCN(c2ccccc2C#N)CC1` [I-110, (R)-2-(4-(3,5-Dimethyl-6-(4-(2-(S-methylsulfonimidoyl)phenyl)piperazine-1-carbonyl)pyridin-2-ylamino)piperidin-1-yl)benzonitrile], for which the IC50 in assay [1] was 10 to 1000 nM; in assay [2] it was over 10000 nM.
On to `Cc1cc(C)c(C(=O)N2CCN(c3ccccc3C)[C@@H](CO)C2)cc1NC1CCN(c2ccccc2C#N)CC1` [I-112, (R)-2-(4-(5-(3-(Hydroxymethyl)-4-o-tolylpiperazine-1-carbonyl)-2,4-dimethylphenylamino)piperidin-1-yl)benzonitrile], for which the IC50 in assay [1] was 1000 to 3000 nM; in assay [2], over 10000 nM.
The like results for `Cc1cc(F)c(C(=O)N2CCN(c3ccccc3S(N)(=O)=O)CC2)cc1NC1CCN(c2ccccc2C#N)CC1` [I-113, 2-(4-(5-(1-(2-Cyanophenyl)piperidin-4-ylamino)-2-fluoro-4-methylbenzoyl)piperazin-1-yl)benzenesulfonamide] were, in that order, 3000 to 5000 nM and over 10000 nM.
`Cc1cc(C)c(C(=O)N2CCN(C(C)C)[C@@H](CO)C2)cc1NC1CCN(c2ccccc2C#N)CC1` [I-114, (R)-2-(4-(5-(3-(Hydroxymethyl)-4-isopropylpiperazine-1-carbonyl)-2,4-dimethylphenylamino)piperidin-1-yl)benzonitrile]: the IC50 in assay [1] and in assay [2] was over 10000 nM each time.
For `Cc1cc(C)c(C(=O)N2CCN(c3ncccc3F)[C@@H](CO)C2)cc1NC1CCN(c2ccccc2C#N)CC1` [I-115, (R)-2-(4-(5-(4-(3-Fluoropyridin-2-yl)-3-(hydroxymethyl)piperazine-1-carbonyl)-2,4-dimethylphenylamino)piperidin-1-yl)benzonitrile], the IC50 was 1000 to 3000 nM in assay [1] and over 10000 nM in assay [2].
The like results for `Cc1cc(C)c(C(=O)N2CCN(c3ccc(F)cn3)[C@@H](CO)C2)cc1NC1CCN(c2ccccc2C#N)CC1` [I-116, (R)-2-(4-(5-(4-(5-Fluoropyridin-2-yl)-3-(hydroxymethyl)piperazine-1-carbonyl)-2,4-dimethylphenylamino)piperidin-1-yl)benzonitrile] were, in that order, 1000 to 3000 nM and over 10000 nM.
On to `Cc1cc(C)c(C(=O)N2CCN(c3ccc(F)cn3)[C@H](CO)C2)cc1NC1CCN(c2ccccc2C#N)CC1` [I-117, (S)-2-(4-(5-(4-(5-fluoropyridin-2-yl)-3-(hydroxymethyl)piperazine-1-carbonyl)-2,4-dimethylphenylamino)piperidin-1-yl)benzonitrile], for which the IC50 in assay [1] is 10 to 1000 nM; in assay [2], over 10000 nM.
